What all share (assay type): functional, cell-based
Assay [1] has as its system HT-29. The experiment in a line: Cytotoxicity was evaluated in vitro against HT-29 (colon carcinoma) human tumor cell lines.
The test system of assay [2] is A549. Nature of the assay: Cytotoxicity was evaluated in vitro against A549 (non-small cell lung carcinoma) human tumor cell lines.
In assay [3] the test system is A121. The experiment in a line: Cytotoxicity was evaluated in vitro against A121 (ovarian carcinoma) human tumor cell lines.
For assay [4], the system named is MCF7. The experiment in a line: Cytotoxicity was evaluated in vitro against MCF-7 (mammary carcinoma) human tumor cell lines.

Molecules are shown by their SMILES.

As to `CC(=O)O[C@@]12CO[C@@H]1C[C@H](O)[C@@]1(C)C(=O)[C@H](O)C3=C(C)[C@@H](OC(=O)[C@H](O)[C@@H](NC(=O)OC(C)(C)C)c4ccccc4)[C@@H]4OC(C)(C)O[C@]4([C@@H](OC(=O)c4ccccc4)C12)C3(C)C` (some centres not stated), the IC50 in assay [1] was 21 nM; in assay [2], 18 nM; in assay [3] it was 46 nM; in assay [4], 34 nM.

For `CC(=O)O[C@@]12CO[C@@H]1C[C@H](O)[C@@]1(C)C(=O)[C@H](O)C3=C(C)[C@@H](OC(=O)[C@H](O)[C@@H](NC(=O)OC(C)(C)C)c4ccccc4)[C@H](O)[C@@](O)([C@@H](OC(=O)c4ccccc4)C12)C3(C)C` (some centres not stated), the IC50 in assay [1] turned out to be 2.1 nM; in assay [2], 0.8 nM; in assay [3], 3.3 nM; in assay [4], 1.9 nM.

Regarding `CC(=O)O[C@@]12CO[C@@H]1C[C@H](O)[C@@]1(C)C(=O)[C@H](O)C3=C(C)[C@@H](OC(=O)[C@H](O)[C@@H](NC(=O)OC(C)(C)C)c4ccccc4)C[C@@](O)([C@@H](OC(=O)c4ccccc4)[C@H]21)C3(C)C` [DOCETAXEL], the IC50 in assay [1] was 1.2 nM; in assay [2], 1 nM; in assay [3] it was 1.2 nM; in assay [4] it was 1 nM.
